We go through seven compounds from patent US8143408B2, “N-(8-heteroaryltetrahydronaphtalene-2yl) or N-(5-heteroarylchromane-3-yl) carboxamide derivatives for the treatment of pain” (AstraZeneca AB, priority 2007, dated 2012).

For this experiment, the target named is T1, Nav1.7 voltage-gated sodium channel (Homo sapiens, UniProt Q15858).
T1 construct: Gene(s) encoding the full-length protein of the voltage-gated sodium channel of interest are cloned and expressed; expressed in transfected cells
The experiment in a line: Whole-cell voltage clamp electrophysiology assay. In kind it is cell-based. The note with it: cells stably expressing the voltage-gated sodium channel of interest. Put shortly:
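Cells expressing full-length channel, exposed to drug by integrated pipetting on automated patch-clamp platforms or by microperfusion in conventional whole-cell patch clamp. Channels activated by a voltage protocol depolarising from a defined holding potential; buffers per platform manufacturer.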

Each structure is given as a SMILES string.

T1 sequence (Q15858 whole entry): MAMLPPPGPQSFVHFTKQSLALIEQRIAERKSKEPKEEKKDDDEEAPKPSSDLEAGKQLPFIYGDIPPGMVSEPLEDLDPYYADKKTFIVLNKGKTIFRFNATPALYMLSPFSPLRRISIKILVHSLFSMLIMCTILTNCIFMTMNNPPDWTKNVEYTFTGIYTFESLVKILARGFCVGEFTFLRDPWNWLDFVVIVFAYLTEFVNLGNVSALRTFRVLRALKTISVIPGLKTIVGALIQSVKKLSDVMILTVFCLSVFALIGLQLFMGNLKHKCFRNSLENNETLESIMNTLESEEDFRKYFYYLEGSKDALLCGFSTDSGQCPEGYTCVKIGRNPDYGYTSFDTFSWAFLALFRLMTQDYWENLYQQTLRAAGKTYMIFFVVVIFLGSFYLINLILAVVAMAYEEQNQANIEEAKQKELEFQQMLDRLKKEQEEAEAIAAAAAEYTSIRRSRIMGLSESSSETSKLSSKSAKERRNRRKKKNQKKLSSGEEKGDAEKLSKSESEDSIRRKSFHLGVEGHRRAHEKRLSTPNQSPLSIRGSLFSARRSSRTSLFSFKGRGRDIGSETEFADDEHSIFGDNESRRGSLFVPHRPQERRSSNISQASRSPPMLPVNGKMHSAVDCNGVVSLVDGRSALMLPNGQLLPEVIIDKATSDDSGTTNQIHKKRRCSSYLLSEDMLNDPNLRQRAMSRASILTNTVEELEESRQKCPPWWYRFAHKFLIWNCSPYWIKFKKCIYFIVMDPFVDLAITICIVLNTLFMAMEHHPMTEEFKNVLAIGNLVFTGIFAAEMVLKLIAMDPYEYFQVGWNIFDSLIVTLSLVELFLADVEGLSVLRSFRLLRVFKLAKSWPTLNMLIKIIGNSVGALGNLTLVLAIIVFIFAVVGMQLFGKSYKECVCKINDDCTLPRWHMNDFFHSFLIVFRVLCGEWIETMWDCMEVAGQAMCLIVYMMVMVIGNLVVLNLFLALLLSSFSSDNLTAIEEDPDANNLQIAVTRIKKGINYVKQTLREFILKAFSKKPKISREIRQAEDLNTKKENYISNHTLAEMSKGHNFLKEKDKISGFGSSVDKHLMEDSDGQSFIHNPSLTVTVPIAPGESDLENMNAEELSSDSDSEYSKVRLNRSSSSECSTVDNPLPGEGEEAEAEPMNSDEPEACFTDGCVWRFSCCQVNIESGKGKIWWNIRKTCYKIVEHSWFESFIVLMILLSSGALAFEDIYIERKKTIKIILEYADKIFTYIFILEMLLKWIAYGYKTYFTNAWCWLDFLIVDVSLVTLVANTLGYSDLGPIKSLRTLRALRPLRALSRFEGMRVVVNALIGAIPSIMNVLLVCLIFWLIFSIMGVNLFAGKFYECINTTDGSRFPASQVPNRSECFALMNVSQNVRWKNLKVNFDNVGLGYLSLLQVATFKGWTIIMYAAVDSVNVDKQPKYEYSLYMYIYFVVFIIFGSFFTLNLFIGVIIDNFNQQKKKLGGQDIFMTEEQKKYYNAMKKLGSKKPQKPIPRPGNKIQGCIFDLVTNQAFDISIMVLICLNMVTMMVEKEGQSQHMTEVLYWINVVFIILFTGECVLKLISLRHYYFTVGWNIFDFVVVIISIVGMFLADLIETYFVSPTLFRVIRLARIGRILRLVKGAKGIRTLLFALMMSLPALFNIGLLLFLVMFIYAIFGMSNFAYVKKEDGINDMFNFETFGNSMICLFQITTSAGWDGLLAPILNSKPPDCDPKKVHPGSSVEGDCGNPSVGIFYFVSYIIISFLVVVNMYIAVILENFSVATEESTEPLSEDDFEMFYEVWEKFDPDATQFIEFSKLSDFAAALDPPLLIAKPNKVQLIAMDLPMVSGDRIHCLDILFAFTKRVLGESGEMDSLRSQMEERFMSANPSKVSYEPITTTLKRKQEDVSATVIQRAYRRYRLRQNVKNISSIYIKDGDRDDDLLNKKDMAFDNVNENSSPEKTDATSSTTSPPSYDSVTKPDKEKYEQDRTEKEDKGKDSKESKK

For `COc1ncc(-c2cccc3c2C[C@H](NC(=O)c2ccc(OC(C)C)nc2)CO3)cc1C(=O)N(C)C` [Example 207, 5-[(3S)-3-{[(6-isopropoxypyridin-3-yl)carbonyl]amino}-3,4-dihydro-2H-chromen-5-yl]-2-methoxy-N,N-dimethylnicotinamide], 3980 nM corresponded to half-maximal inhibition (IC50).
Under `COc1ncc(-c2cccc3c2C[C@H](NC(=O)c2ccc(OCC(F)(F)F)nc2)CO3)cc1C(=O)N(C)C` [Example 208, 2-methoxy-N,N-dimethyl-5-[(3S)-3-({[6-(2,2,2-trifluoroethoxy)pyridin-3-yl]carbonyl}amino)-3,4-dihydro-2H-chromen-5-yl]nicotinamide] stands 1580 nM.
`CN(C)C(=O)c1ncc(-c2cccc3c2C[C@H](NC(=O)c2ccc(OCCOCC(F)(F)F)nc2)CO3)cn1` [Example 209, N,N-dimethyl-5-{(3S)-3-[({6-[2-(2,2,2-trifluoroethoxy)ethoxy]pyridin-3-yl}carbonyl)amino]-3,4-dihydro-2H-chromen-5-yl}pyrimidine-2-carboxamide]: the IC50 was 7940 nM.
For `O=C(N[C@@H]1COc2cccc(-c3ccc(CO)nc3)c2C1)c1ccc(OCCOCC(F)(F)F)nc1` [Example 210, N-{(3S)-5-[6-(hydroxymethyl)pyridin-3-yl]-3,4-dihydro-2H-chromen-3-yl}-6-[2-(2,2,2-trifluoroethoxy)ethoxy]nicotinamide], the IC50 was 100 nM.
The value for `O=C(N[C@@H]1COc2cccc(-c3ccc(CO)nc3)c2C1)c1ccc(OCCCF)nc1` [Example 211, 6-(3-fluoropropoxy)-N-{(3S)-5-[6-(hydroxymethyl)pyridin-3-yl]-3,4-dihydro-2H-chromen-3-yl}nicotinamide] was 200 nM.
The value for `O=C(N[C@@H]1COc2cccc(-c3ccc(CO)nc3)c2C1)c1ccc(OCC(F)(F)F)nc1` [Example 212, N-{(3S)-5-[6-(hydroxymethyl)pyridin-3-yl]-3,4-dihydro-2H-chromen-3-yl}-6-(2,2,2-trifluoroethoxy)nicotinamide] was 100 nM; that for `O=C(N[C@@H]1COc2cccc(-c3cnc(CO)cn3)c2C1)c1ccc(OCCOCC(F)(F)F)nc1` [Example 213, N-{(3S)-5-[5-(hydroxymethyl)pyrazin-2-yl]-3,4-dihydro-2H-chromen-3-yl}-6-[2-(2,2,2-trifluoroethoxy)ethoxy]nicotinamide] was 316 nM.
